Consider four compounds from ChEMBL document CHEMBL3994622, “Design and synthesis of new RAF kinase-inhibiting antiproliferative quinoline derivatives. Part 2: Diarylurea derivatives” (Eur J Med Chem, 2017).

For experiment [1], the system named is MDA-MB-468. Nature of the experiment: Growth inhibition of human MDA-MB-468 cells assessed as cell growth at 30 uM incubated for 48 hrs by sulforhodamine B assay relative to control. The experiment is classed as functional. The note with it: MDA-MB-468, 48 h, read-out: Activity. (Sulforhodamine B stains cellular protein and so reports cell mass.)
Experiment [2] concerns the target Tyrosine-protein kinase ABL1 (Homo sapiens) (UniProt P00519). Nature of the experiment: Inhibition of human ABL1 at 10 uM using EAIYAAPFAKKK as substrate in presence of [33P]ATP by Hotspot assay relative to control.
Experiment [3] is filed under the species Homo sapiens. In words: Selectivity index, ratio of IC50 for human BRAF V600E mutant to IC50 for human c-RAF.
The test system of experiment [4] is COLO 205. Nature of the experiment: Growth inhibition of human COLO205 cells assessed as cell growth at 0.005 uM incubated for 48 hrs by sulforhodamine B assay relative to control. The experiment is classed as functional. As to conditions: COLO 205, 48 h, read-out: Activity.
Experiment [5] deals with HCT-116. In words: Growth inhibition of human HCT116 cells assessed as cell growth at 0.005 uM incubated for 48 hrs by sulforhodamine B assay relative to control. The experiment is classed as functional. The note with it: HCT-116, 48 h, read-out: Activity.
In experiment [6] the test system is SF-295. In words: Growth inhibition of human SF295 cells assessed as cell growth at 0.005 uM incubated for 48 hrs by sulforhodamine B assay relative to control. As to conditions: SF-295, 48 h, read-out: Activity. The experiment is classed as functional.
Experiment [7] relates to SNB-75. Nature of the experiment: Growth inhibition of human SNB75 cells assessed as cell growth at 0.005 uM incubated for 48 hrs by sulforhodamine B assay relative to control. The note with it: SNB-75, 48 h, read-out: Activity. The experiment is classed as functional.
In experiment [8] the test system is U-251. Nature of the experiment: Growth inhibition of human U251 cells assessed as cell growth at 0.005 uM incubated for 48 hrs by sulforhodamine B assay relative to control. The experiment is classed as functional. The note with it: U-251, 48 h, read-out: Activity.
Experiment [9] concerns NCI-H23. In words: Growth inhibition of human NCI-H23 cells assessed as cell growth at 0.05 uM incubated for 48 hrs by sulforhodamine B assay relative to control. The experiment is classed as functional. The note with it: NCI-H23, 48 h, read-out: Activity.
For experiment [10], the system named is NCI-H460. Nature of the experiment: Growth inhibition of human NCI-H460 cells assessed as cell growth at 0.05 uM incubated for 48 hrs by sulforhodamine B assay relative to control. The experiment is classed as functional. The note with it: NCI-H460, 48 h, read-out: Activity.
Experiment [11] concerns COLO 205. Nature of the experiment: Growth inhibition of human COLO205 cells assessed as cell growth at 0.05 uM incubated for 48 hrs by sulforhodamine B assay relative to control. As to conditions: COLO 205, 48 h, read-out: Activity. The experiment is classed as functional.
Experiment [12] concerns SN12C. In words: Growth inhibition of human SN12C cells assessed as cell growth at 0.05 uM incubated for 48 hrs by sulforhodamine B assay relative to control. The note with it: read-out: Activity. The experiment is classed as functional.
For experiment [13], the system named is Hs-578T. Nature of the experiment: Growth inhibition of human Hs 578T cells assessed as cell growth at 0.05 uM incubated for 48 hrs by sulforhodamine B assay relative to control. The experiment is classed as functional. As to conditions: read-out: Activity.
The subject of experiment [14] is A549. Nature of the experiment: Growth inhibition of human A549/ATCC cells assessed as cell growth at 0.5 uM incubated for 48 hrs by sulforhodamine B assay relative to control. As to conditions: A549, 48 h, read-out: Activity. The experiment is classed as functional.
Experiment [15] has as its system HOP-62. In words: Growth inhibition of human HOP62 cells assessed as cell growth at 0.5 uM incubated for 48 hrs by sulforhodamine B assay relative to control. The experiment is classed as functional. The note with it: HOP-62, 48 h, read-out: Activity.
Experiment [16] deals with HOP-92. Nature of the experiment: Growth inhibition of human HOP92 cells assessed as cell growth at 0.5 uM incubated for 48 hrs by sulforhodamine B assay relative to control. The experiment is classed as functional. The note with it: HOP-92, 48 h, read-out: Activity.
In experiment [17] the test system is NCI-H226. In words: Growth inhibition of human NCI-H226 cells assessed as cell growth at 0.5 uM incubated for 48 hrs by sulforhodamine B assay relative to control. The experiment is classed as functional. As to conditions: NCI-H226, 48 h, read-out: Activity.
The test system of experiment [18] is NCI-H322M. Nature of the experiment: Growth inhibition of human NCI-H322M cells assessed as cell growth at 0.5 uM incubated for 48 hrs by sulforhodamine B assay relative to control. The experiment is classed as functional. As to conditions: read-out: Activity.
Experiment [19] relates to SF-539. Nature of the experiment: Growth inhibition of human SF539 cells assessed as cell growth at 0.5 uM incubated for 48 hrs by sulforhodamine B assay relative to control. The experiment is classed as functional. As to conditions: SF-539, 48 h, read-out: Activity.
The subject of experiment [20] is OVCAR-8. Nature of the experiment: Growth inhibition of human OVCAR8 cells assessed as cell growth at 0.5 uM incubated for 48 hrs by sulforhodamine B assay relative to control. As to conditions: OVCAR-8, 48 h, read-out: Activity. The experiment is classed as functional.
The subject of experiment [21] is UO-31. Nature of the experiment: Growth inhibition of human UO31 cells assessed as cell growth at 0.5 uM incubated for 48 hrs by sulforhodamine B assay relative to control. The note with it: UO-31, 48 h, read-out: Activity. The experiment is classed as functional.
Experiment [22] relates to RPMI-8226. In words: Growth inhibition of human RPMI8226 cells assessed as cell growth at 5 uM incubated for 48 hrs by sulforhodamine B assay relative to control. The note with it: RPMI-8226, 48 h, read-out: Activity. The experiment is classed as functional.
The subject of experiment [23] is HOP-92. In words: Growth inhibition of human HOP92 cells assessed as cell growth at 5 uM incubated for 48 hrs by sulforhodamine B assay relative to control. The experiment is classed as functional. As to conditions: HOP-92, 48 h, read-out: Activity.
For experiment [24], the system named is NCI-H23. In words: Growth inhibition of human NCI-H23 cells assessed as cell growth at 5 uM incubated for 48 hrs by sulforhodamine B assay relative to control. As to conditions: NCI-H23, 48 h, read-out: Activity. The experiment is classed as functional.
Experiment [25] relates to HT-29. Nature of the experiment: Growth inhibition of human HT-29 cells assessed as cell growth at 5 uM incubated for 48 hrs by sulforhodamine B assay relative to control. The note with it: HT-29, 48 h, read-out: Activity. The experiment is classed as functional.
Experiment [26] relates to SF-295. In words: Growth inhibition of human SF295 cells assessed as cell growth at 5 uM incubated for 48 hrs by sulforhodamine B assay relative to control. The experiment is classed as functional. As to conditions: SF-295, 48 h, read-out: Activity.
Experiment [27] deals with SNB-19. Nature of the experiment: Growth inhibition of human SNB19 cells assessed as cell growth at 5 uM incubated for 48 hrs by sulforhodamine B assay relative to control. The experiment is classed as functional. As to conditions: SNB-19, 48 h, read-out: Activity.
For experiment [28], the system named is NCI/ADR-RES. In words: Growth inhibition of human NCI/ADR-RES cells assessed as cell growth at 5 uM incubated for 48 hrs by sulforhodamine B assay relative to control. The experiment is classed as functional. As to conditions: read-out: Activity.
Experiment [29] relates to MCF7. In words: Growth inhibition of human MCF7 cells assessed as cell growth at 5 uM incubated for 48 hrs by sulforhodamine B assay relative to control. As to conditions: MCF7, 48 h, read-out: Activity. The experiment is classed as functional.
Experiment [30] concerns COLO 205. In words: Growth inhibition of human COLO205 cells assessed as cell growth at 50 uM incubated for 48 hrs by sulforhodamine B assay relative to control. The experiment is classed as functional. The note with it: COLO 205, 48 h, read-out: Activity.
The test system of experiment [31] is SW-620. Nature of the experiment: Growth inhibition of human SW620 cells assessed as cell growth at 50 uM incubated for 48 hrs by sulforhodamine B assay relative to control. The experiment is classed as functional. As to conditions: SW-620, 48 h, read-out: Activity.
The test system of experiment [32] is OVCAR-5. In words: Growth inhibition of human OVCAR5 cells assessed as cell growth at 50 uM incubated for 48 hrs by sulforhodamine B assay relative to control. As to conditions: OVCAR-5, 48 h, read-out: Activity. The experiment is classed as functional.
Experiment [33] deals with SK-OV-3. In words: Growth inhibition of human SKOV3 cells assessed as cell growth at 50 uM incubated for 48 hrs by sulforhodamine B assay relative to control. The note with it: SK-OV-3, 48 h, read-out: Activity. The experiment is classed as functional.
Experiment [34] concerns MDA-MB-468. In words: Growth inhibition of human MDA-MB-468 cells assessed as cell growth at 10 uM incubated for 48 hrs by sulforhodamine B assay relative to control. The experiment is classed as functional. The note with it: MDA-MB-468, 48 h, read-out: Activity.

SMILES strings stand for the structures.

Chain of Tyrosine-protein kinase ABL1 (Homo sapiens) (P00519 whole entry): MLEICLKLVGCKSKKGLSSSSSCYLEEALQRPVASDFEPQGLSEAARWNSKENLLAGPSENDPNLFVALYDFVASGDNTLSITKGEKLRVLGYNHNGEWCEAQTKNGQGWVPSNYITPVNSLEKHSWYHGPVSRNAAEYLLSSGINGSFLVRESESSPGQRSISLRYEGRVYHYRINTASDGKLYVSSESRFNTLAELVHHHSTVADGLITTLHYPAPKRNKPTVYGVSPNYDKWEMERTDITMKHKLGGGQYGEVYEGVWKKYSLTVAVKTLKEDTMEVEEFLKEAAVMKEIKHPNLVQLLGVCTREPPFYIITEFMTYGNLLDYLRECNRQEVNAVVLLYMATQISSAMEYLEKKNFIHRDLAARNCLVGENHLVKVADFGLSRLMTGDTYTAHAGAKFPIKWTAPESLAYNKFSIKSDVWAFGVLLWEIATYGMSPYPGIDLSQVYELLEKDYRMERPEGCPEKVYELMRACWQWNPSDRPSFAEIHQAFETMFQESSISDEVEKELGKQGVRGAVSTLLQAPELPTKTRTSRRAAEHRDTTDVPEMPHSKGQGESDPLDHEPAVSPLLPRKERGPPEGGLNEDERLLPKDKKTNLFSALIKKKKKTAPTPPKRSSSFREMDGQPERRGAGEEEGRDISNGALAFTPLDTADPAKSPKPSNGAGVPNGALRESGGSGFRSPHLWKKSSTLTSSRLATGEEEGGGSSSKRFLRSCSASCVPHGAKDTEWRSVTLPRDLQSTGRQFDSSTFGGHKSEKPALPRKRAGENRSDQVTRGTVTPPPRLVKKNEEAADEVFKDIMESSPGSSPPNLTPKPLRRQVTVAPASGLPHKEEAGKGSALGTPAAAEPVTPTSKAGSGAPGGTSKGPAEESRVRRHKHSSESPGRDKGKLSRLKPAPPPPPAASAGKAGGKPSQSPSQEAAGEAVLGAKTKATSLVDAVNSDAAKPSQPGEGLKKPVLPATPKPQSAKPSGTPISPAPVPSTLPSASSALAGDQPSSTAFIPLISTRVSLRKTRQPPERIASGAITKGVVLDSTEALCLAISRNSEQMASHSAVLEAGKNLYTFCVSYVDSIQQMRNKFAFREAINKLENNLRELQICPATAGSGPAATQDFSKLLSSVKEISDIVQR

As for `Cc1nc2cc(O)c(O)cc2cc1Oc1ccc(NC(=O)Nc2ccc(Cl)c(Cl)c2)cc1`, in experiment [1], the growth at 30 µM is -34%.

`COc1cc2cc(Oc3ccc(NC(=O)Nc4ccc(Cl)c(C(F)(F)F)c4)cc3)c(C)nc2cc1OC`: the inhibition in experiment [2] was -6.78%. In experiment [3], the Ratio IC50 worked out at 2.6.

For the compound `COc1cc2cc(Oc3ccc(NC(=O)Nc4cccc(C(F)(F)F)c4)cc3)c(C)nc2cc1OC`, the growth at 0.005 µM in experiment [4] stood at 97%; in experiment [5] it was 100%; in experiment [6] it was 90%; in experiment [7], 79%; in experiment [8], 98%. In addition, the growth at 0.05 µM in experiment [9] is 99%; in experiment [10], 106%; in experiment [11] it was 94%; in [12], 97%; in experiment [13] it was 100%. In addition, the growth at 0.5 µM in experiment [14] came out at 86%; in experiment [15] it was 100%; in experiment [16], 90%; in experiment [17], 108%; in experiment [18], 107%; in experiment [19], 104%. The figures for the growth at 0.5 µM in experiment [20] and in experiment [21] were 96% and 106%, respectively. Further, the growth at 5 µM in [22] is -25%; in [23], -10%; in [24] it was 9%; in experiment [25], 11%; in experiment [26] it was -14%; in experiment [27], 24%. The growth at 5 µM in [28] worked out at 11%; in experiment [29], 3%. Besides, the growth at 50 µM in [30] was -88%; in experiment [31] it was -37%; in experiment [32] it was -44%; in experiment [33], -37%.

With `COc1cc2cc(Oc3ccc(NC(=O)Nc4cc(C(F)(F)F)cc(C(F)(F)F)c4)cc3)c(C)nc2cc1OC`, in experiment [34], the growth at 10 µM is -36%.

The term inhibition denotes the drop in the measured response relative to a control, in per cent.
